The structures appear in SMILES notation. Structures can show the parent of a compound that is named as a salt.

For this assay, the system named is Dissociated VM cells. The assay is described as follows: Neuroprotection Assay (NMDA-induced neuroexcitotoxic injury, high affinity 3H-dopamine uptake). Type of assay: cell-based, Sprague-Dawley rat. To be noted: embryonic day 15 rat ventral mesencephalic cultures, NMDA (100-400 µM) for 20 hours. The source says:
The neuroprotective activity of the compounds of this invention may be assayed using rat embryo ventral mesencephalic cells in culture which are subsequently exposed to the glutamate receptor agonist NMDA. This assay is described in detail in the example section.
The ventral mesencephalic region was dissected out of embryonic day 15 Sprague-Dawley rat embryos (Harlan), dissociated into single cell suspension by a combination of trypsinization and trituration (Costantini et al., Neurobiol Dis., pp. 97-106 (1998). Dissociated VM cells were plated into poly-L-ornithine-coated 96-well plates at a density of 85,000 cells/well in 100 uL of DMEM supplemented with 18% heat-inactivated horse serum, 0.24% glucose, 2 mM glutamine and 50 u/ml pernicillin/streptomycin and incubated in a 5% CO2 incubator. After one day in culture (DIV1), the medium was replaced with 100 µL of a defined medium (DMEM supplemented with 1x N2 cocktail (Gibco-BRL), 0.12% glucose, 2 mM glutamine, and 50 units/ml penicillin/streptomycin) containing DMSO or various concentrations of the compounds of this invention. On DIV5, neuroexcitotoxic injury was induced by the addition of various concentrations of the glutamate receptor agonist NMDA (100-400 µM). Cultures were incubated with the neurotoxin for 20 hours and the effects of neurophilin compounds were assessed using high affinity ^3H-dopamine uptake according to a procedure published by Park and Mytilineou [Brain Res., 599, pp. 83-97 (1992)].
In the case of `CN1CCC(C(=O)N2CCN(C(c3ccc(F)cc3)c3ccc(F)cc3)CC2)CC1` [Compound 218], the EC50 is 100 to 500 nM.
The value for `O=C([C@@H]1CCCCN1Cc1ccc(F)cc1)N1CCN(C(c2ccc(F)cc2)c2ccc(F)cc2)CC1` [Compound 62, {4-[Bis-(4-fluorophenyl)methyl]-pipezazin-1-yl}-[(2S)-1-(4-fluorobenzyl)-piperidin-2-yl]-methanone] was 100 to 500 nM; that for `O=C([C@H]1CCCN1Cc1ccccc1)N1CCC(Cc2ccccc2)CC1` [Compound 55, (4-Benzylpiperidin-1-yl)-((2R)-1-benzylpyrrolidin-2-yl)methanone hydrochloride] was 100 to 500 nM; that for `C=CCN1CCC(C(=O)N2CCC(Cc3ccc(F)cc3)CC2)CC1` [Compound 274] was over 500 nM.
Then `CCN1CCCC[C@H]1C(=O)N1CCN(S(=O)(=O)c2ccccc2)CC1` [Compound 80, (4-Benzenesulfonylpiperazin-1-yl)-((2S)-1-ethylpiperidin-2-yl)-methanone hydrochloride], with over 500 nM.
The value for `O=C(C1CCN(C/C=C/c2ccccc2)CC1)N1CCN(c2ccc(F)cc2)CC1` [Compound 266] was 100 to 500 nM; that for `CCN1CCCC[C@H]1C(=O)N1CCC(C(c2ccccc2)c2ccccc2)CC1` [Compound 44, (4-Benzhydrylpiperidin-1-yl)-((2S)-1-ethylpiperidin-2-yl)-methanone hydrochloride] was under 100 nM; that for `CCN1CCCC[C@H]1C(=O)N1CCN(Cc2ccc(Cl)c(Cl)c2)CC1` [Compound 69, [4-(3,4-Dichlorobenzyl)-piperazin-1-yl]-((2S)-1-ethylpiperidin-2-yl)-methanone dihydrochloride] was under 100 nM.
Turning to `CCN1CCCC[C@H]1C(=O)N1CCC(C(O)c2ccc(F)cc2)CC1` (stereo partly drawn) [Compound 46, ((2S)-1-Ethylpiperidin-2-yl)-{4-[(4-fluorophenyl)hydroxymethyl]-piperidin-1-yl}-methanone], the EC50 was over 500 nM.
Regarding `CC(C)CN1CCC(C(=O)N2CCN(c3ccc(F)cc3)CC2)CC1` [Compound 264], the concentration for a half-maximal effect (EC50) lay within 100 to 500 nM.
Then `CN1CCCC(C(=O)N2CCN(C(c3ccc(F)cc3)c3ccc(F)cc3)CC2)C1` (stereo not drawn) [Compound 220], with over 500 nM; and `O=C([C@@H]1CCCCN1CC1CC1)N1CCN(C(c2ccc(F)cc2)c2ccc(F)cc2)CC1` [Compound 63, {4-[Bis-(4-fluorophenyl)methyl]-piperazin-1-yl}-((2S)-1-cyclopropylmethyl-piperidin-2-yl)-methanone], with over 500 nM.
Then `O=C([C@@H]1CCCN1Cc1ccc(F)cc1)N1CCC(Cc2ccccc2)CC1` [Compound 58, (4-Benzylpiperidin-1-yl)-[(2S)-1-(4-fluorobenzyl)-Pyrrolidin-2-yl]-methanone hydrochloride], with under 100 nM.
Then `CCN1CCCC[C@H]1C(=O)N1CCN(Cc2ccc(F)cc2)CC1` [Compound 76, ((2S)-1-Ethylpiperidin-2-yl)-[4-(4-fluorobenzyl)-piperazin-1-yl] methanone], with 100 to 500 nM; and `Fc1ccc(CC2CCN(C[C@@H]3CCCN3Cc3ccccc3)CC2)cc1` [Compound 103, 1-((2S)-1-Benzylpyrrolidin-2-ylmethyl)-4-(4-fluorobenzyl)piperidine dihydrochloride], with under 100 nM; and `CCN1CCCC[C@H]1C(=O)N1CCN(Cc2ccncc2)CC1` [Compound 37, ((2S)-1-Ethylpiperidin-2-yl)-(4-pyridin-4-ylmethylpiperazin-1-yl)-methanone trihydrochloride], with over 500 nM.
On to `O=C(C1CCN(Cc2ccccc2)CC1)N1CCN(c2ccc(F)cc2)CC1` [Compound 256], for which the EC50 fell in the range of 100 to 500 nM.
For the compound `CCN1CCCC[C@H]1C(=O)N1CCC(C(=O)c2ccc(F)cc2)CC1` [Compound 45, ((2S)-1-Ethylpiperidin-2-yl)-[4-(4-fluorobenzoyl)-piperidin-1-yl]-methanone], the EC50 lay in the range of 100 to 500 nM.
The value for `CCN1CCCC[C@H]1C(=O)N1CCN(Cc2ccc(OC)cc2)CC1` [Compound 75, ((2S)-1-Ethylpiperidin-2-yl)-[4-(4-methoxybenzyl)-piperazin-1-yl]-methanone] was over 500 nM; that for `CCN1CCCC[C@H]1C(=O)N1CCN(Cc2ccccn2)CC1` [Compound 38, ((2S)-1-Ethylpiperidin-2-yl)-(4-pyridin-2-ylmethylpiperazin-1-yl)-methanone trihydrochloride] was over 500 nM.
The value for `O=C(C1CCN(C/C=C/c2ccccc2)CC1)N1CCC(Cc2ccc(F)cc2)CC1` [Compound 255] was under 100 nM.
The value for `C=CCN1CCC(C(=O)N2CCN(c3ccc(F)cc3)CC2)CC1` [Compound 258] was 100 to 500 nM; that for `O=C(C1CCN(Cc2ccc(F)cc2)CC1)N1CCC(Cc2ccc(F)cc2)CC1` [Compound 257] was 100 to 500 nM; that for `CO[C@@H]1C[C@@H](C(=O)N2CCC(Cc3ccccc3)CC2)N(Cc2ccccc2)C1` [Compound 153, ((2S,4R)-1-Benzyl-4-methoxypyrrolidin-2-yl)-(4-benzylpiperdin-1-yl)-methanone] was over 500 nM.
Turning to `CCN1CCCC[C@H]1CN1CCN(C(c2ccccc2)c2ccccc2)CC1` [Compound 100, 1-Benzhydryl-4-((2S)-1-ethylpiperidin-2-ylmethyl)-piperazine], the EC50 was under 100 nM.
Then `CCN1CCCC[C@H]1C(=O)N1CCC(=Cc2ccc(F)cc2)CC1` [Compound 84, ((2S)-1-Ethylpiperidin-2-yl)-[4-(4-fluorobenzylidene)piperidin-1-yl]-methanone hydrochloride], with under 100 nM; and `CCN1CCCC[C@H]1C(=O)N1CCN(C(c2ccccc2)c2ccc(Cl)cc2)CC1` (stereo partly drawn) [Compound 41, {4-[(4-Chlorophenyl)phenylmethyl]-piperazin-1-yl}-((2S)-1-ethylpiperidin-2-yl)-methanone dihydrochloride], with under 100 nM; and `O=C([C@@H]1CCCN1Cc1ccccc1)N1CCC(=Cc2ccc(F)cc2)CC1` [Compound 85, ((2S)-1-Benzylpyrrolidin-2-yl)-[4-(4-fluorobenzylidene)piperidin-1-yl] methanone hydrochloride], with under 100 nM.
In the case of `CC(C)=CCN1CCCC[C@H]1C(=O)N1CCN(C(c2ccc(F)cc2)c2ccc(F)cc2)CC1` [Compound 65, {4-[Bis-(4-fluorophenyl)methyl]-piperazin-1-yl}-[(2S)-1-(3-methyl-but-2-enyl)-piperidin-2-yl]-methanone], the EC50 was under 100 nM.
On to `O=C([C@@H]1CCCCN1Cc1ccccc1)N1CCN(C(c2ccccc2)c2ccccc2)CC1` [Compound 20, 1-((S)-1-Benzyl-piperidin-2-yl)-1-[4-(1,1-diphenyl-methyl)-piperazin-1-yl]-methanone], for which the EC50 is under 100 nM.
On to `O=C([C@@H]1CCCCN1Cc1ccc(F)cc1)N1CCN(C(c2ccccc2)c2ccccc2)CC1` [Compound 21, 1-[4-(1,1-Diphenyl-methyl)-piperazin-1-yl]-1-[(S)-1-(4-fluoro-benzyl)-piperidin-2-yl]-methanone], for which the EC50 is under 100 nM.
Take `CCN1CCCC[C@H]1C(=O)N1CCN(Cc2ccccc2)CC1` [Compound 16, 1-(4-Benzylpiperazin-1-yl)-1-((S)-1-ethylpiperidin-2-yl)methanone]: the EC50 lay within 100 to 500 nM.
Then `COC(=O)CO[C@@H]1C[C@@H](C(=O)N2CCC(Cc3ccccc3)CC2)N(Cc2ccccc2)C1` [Compound 155, [(2S, 4R)-1-Benzyl-5-(4-benzylpiperidine-1-carbonyl)-pyrrolidin-3-yloxyl]-acetic acid methyl ester], with over 500 nM.

For the origin of these results see patent EP1257544B1, “PIPERAZINE AND PIPERIDINE DERIVATIVES FOR TREATMENT OR PREVENTION OF NEURONAL DAMAGE” (VERTEX PHARMACEUTICALS INCORPORATED, priority 2000, dated 2001).
